Assay results: patent publication US20060276495A1, “Treatment methods of nasal congestion and nasal obstruction” (Schering Corporation, priority 2001, published 2006)

How the values were obtained:
patients with SAR = experiment: pooled randomized, parallel-group, double-blind, placebo-controlled studies of nasal congestion/stuffiness in patients with SAR; assay type: in vivo, human; details: for nasal congestion/stuffiness severity score (0-3), 14-day average change from baseline: baseline score 2.4
Experimental: The effects of desloratadine on nasal congestion/stuffiness are described by using data pooled from randomized, parallel-group, double-blind, placebo-controlled studies of desloratadine in patients with SAR. Patients (12-75 years; pooled n-659-662/group) with a ≧2-year history of seasonal allergic rhinitis and moderate-to-[…] severe symptoms present at the time of enrollment received desloratadine (5 mg or 7.5 mg) or placebo PO once a day for 14 days. The severity (0=none, 1=mild, 2=moderate, 3=severe) of congestion/stuffiness was assessed by patients for the study duration. The 14-day average change in symptom severity score from baseline was assessed. The mean symptom severity score for nasal congestion/stuffiness was 2.4 in each treatment group at baseline, indicating patients had moderate-to-severe nasal congestion before receiving treatment.

[1] = system: seasonal allergic rhinitis patients; experiment: four double-blinded, randomized clinical trials in seasonal allergic rhinitis patients; assay type: in vivo, human
Description: The clinical efficacy and safety of desloratadine has been documented in over 3,200 seasonal allergic rhinitis patients in four double-blinded, randomized clinical trials.
Efficacy endpoints in all the studies were Total Symptom Score, Total Nasal Symptom Score, Total Non-nasal Symptom Score, and Health Quality of Life (HQOL) analysis in efficacy trials. […] An important efficacy endpoint analyzed in the desloratadine studies is the AM NOW total symptom score. This parameter measures the total symptom relief by the patient after 24 hours before taking the next day dose.

For Clc1ccc2c(c1)CCc1cccnc1C2=C1CCNCC1 [Desloratadine, desloratadine], the “nasal congestion/stuffiness severity score (0-3), 14-day average change from baseline” value (patients with SAR; 5 mg PO once a day for 14 days, P=0.02 vs placebo) was “significantly decreased”, the total symptom severity (patients with SAR; 5 mg or 7.5 mg PO once a day for 14 days, vs placebo) was “significantly decreased” and the “nasal congestion/stuffiness severity score (0-3), 14-day average change from baseline” value (patients with SAR; 7.5 mg PO once a day for 14 days, P=0.01 vs placebo) was “significantly decreased”. The “total symptom scores (sum of individual scores for rhinorrhea, sneezing, congestion/stuffiness, nasal itching, itchy/burning eyes, tearing, ocular redness, itchy ears/palate)” value ([1]; 5 mg once daily, adult and adolescent SAR patients) was “significantly reduced”, the “reducing nasal symptoms vs placebo” value ([1]; 5 mg, p<0.01 vs placebo) was “significantly (p<0.01) more effective than placebo” and the “AM NOW total symptom score (symptom relief after 24 hours, before next day dose)” value ([1]; entire 5 mg to 20 mg dosage range, p<0.05) was “Statistically significant (p<0.05) reductions were maintained for the full 24 hour dosing interval”.
